Results taken from patent publication US20250243219A1, “MACROCYCLIC COMPOUNDS AND USES THEREOF” (Cypralis Limited, priority 2022, published 2025).

Columns and labels:
[1] = Blood-brain barrier penetration, intravenous dosing; assay type: in vivo, rodents (mice or rats); conditions: 3 mg/kg intravenous; for Brain concentration / Plasma concentration: at 30 min.
Method: Test compounds were administered to rodents (mice or rats) either orally, subcutaneously or intravenously. To determine blood or plasma concentrations blood samples were taken at different time points and analysed for the concentration of test compound by LC/MS. Brain concentrations were measured by sacrificing animals and LC/MS analysis of brain homogenate.
The results for Compounds (2), (19), (6) and (27) are summarised in Table 6 showing concentrations of the Compounds in blood plasma and the brain.

[2] = tested on: permeabilised HepG2 cells; assay: Calcium retention capacity (CRC) assay in permeabilised HepG2 cells (MPTP opening); assay type: cell-based, human; set-up: CRC [10 μM]: unit not given here; conditions: compound at 10 μM; for CRC [10 μM]: digitonin permeabilised HepG2 cells; for CRC [10 μM] (ratio vs CsA): normalised to cyclosporin A, value in brackets
Method in brief: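 Digitonin-permeabilised HepG2 cells received trains of calcium pulses (typically 5 μM) monitored with Calcium Green-5N until buffering failed, marking permeability transition. Runs with and without compound; calcium retained at 10 μM compound expressed as ratio versus cyclosporin A positive control.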

cyclophilin D = cyclophilin D (Homo sapiens (Human), UniProt P30405); assay: Functional peptidyl prolyl isomerase (PPIase) spectrophotometric assay, cyclophilin D; assay type: biochemical; conditions: second value of CypA/D cell; read-out: Ki CypD
Method in brief: (§1)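 Cuvette-based UV/Vis assay of PPIase-catalysed cis-to-trans isomerisation of a peptide substrate. First-order rate constants fitted to absorbance, background rate subtracted. Ki derived from rate constant versus inhibitor concentration, typically 6-point curves in duplicate.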

cyclophilin A = cyclophilin A (Homo sapiens (Human), UniProt P62937); assay: Functional peptidyl prolyl isomerase (PPIase) spectrophotometric assay, cyclophilin A; assay type: biochemical; conditions: first value of CypA/D cell
Method in brief: as §1

SH-SY5Y cells = assay: Thapsigargin treated cell death assay in SH-SY5Y cells; assay type: cell-based, human; conditions: compound at 10 μM; positive = protection from cell death, negative = compound toxicity
Method in brief: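 SH-SY5Y neuroblastoma cells given compound (typically 1, 3 and 10 μM, triplicate) 30 min before thapsigargin, with cyclosporin A (3 and 10 μM) as positive control. Cell death read kinetically over 24 h by CellTox Green DNA-binding fluorescence; values are % recovery at 10 μM, usually at 8 h, positive meaning protection.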

Sequence of cyclophilin A (P62937 whole entry, species assumed): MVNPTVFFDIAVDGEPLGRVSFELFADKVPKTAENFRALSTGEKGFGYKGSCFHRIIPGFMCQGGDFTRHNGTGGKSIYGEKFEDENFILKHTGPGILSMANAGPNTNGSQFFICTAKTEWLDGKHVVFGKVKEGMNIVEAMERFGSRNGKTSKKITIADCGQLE
Sequence of cyclophilin D (P30405 30-207, species assumed): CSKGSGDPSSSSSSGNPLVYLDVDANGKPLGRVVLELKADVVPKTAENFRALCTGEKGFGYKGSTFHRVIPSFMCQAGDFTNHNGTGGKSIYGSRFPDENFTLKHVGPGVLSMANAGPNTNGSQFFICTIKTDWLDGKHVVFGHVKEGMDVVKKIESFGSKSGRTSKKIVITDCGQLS

| SMILES | Blood-brain barrier passage [1] | Brain concentration [1] [ng/mL] | Plasma concentration [1] [ng/mL] | CRC [10 μM] [2] | CRC [10 μM] (ratio vs CsA) [2] | Ki (cyclophilin D) [nM] | Ki (cyclophilin A) [nM] | SYSY [10 μM] % recovery (SH-SY5Y cells) [%] |
| --- | --- | --- | --- | --- | --- | --- | --- | --- |
| C[C@@H]1NC(=O)C(CCc2ccccc2)OC(=O)C(C)(C)/C=C/c2ccc3ccc(nc3c2)N(C)NC(=O)[C@@H]2CCCN(N2)C1=O (single isomer, unassigned) [(27)] | passed the blood-brain barrier | 285 | 1382 |  |  |  |  |  |
| CC(C)[C@@H]1OC(=O)C2(/C=C/c3ccc4ccc(nc4c3)N(C)N(C)C(=O)[C@@H]3CCCN(N3)C(=O)[C@H](C)NC1=O)COCOC2 [(19)] | passed the blood-brain barrier | 116 | 74 | 30 | 0.77 | 150 | 23 |  |
| CC(C)[C@@H]1OC(=O)C(C)(C)C/C=C/c2ccc3ccc(nc3c2)N(C)NC(=O)[C@@H]2CCCN(N2)C(=O)[C@H](C)NC1=O [Compound (6)] | passed the blood-brain barrier | 197 | 1216 |  |  | > 10 | > 10000 |  |
| CC(C)[C@@H]1OC(=O)C(C)(C)/C=C/c2ccc3ccc(nc3c2)N(C)NC(=O)[C@@H]2CCCN(N2)C(=O)[C@H](CCC(=O)N2CCC(O)CC2)NC1=O [Compound (72)] |  |  |  | 20 | 0.80 | 21 | 14 | 43 |
| CC(C)[C@@H]1OC(=O)C(C)(C)/C=C/c2ccc3ccc(nc3c2)N(C)NC(=O)[C@@H]2CCCN(N2)C(=O)[C@H](CC2CCN(C)CC2)NC1=O [Compound (73)] |  |  |  | 15 | 0.75 | 42 | 11 | 43 |
| CC(C)[C@@H]1OC(=O)C(C)(C)/C=C/c2ccc3ccc(nc3c2)N(C)NC(=O)[C@@H]2CCCN(N2)C(=O)[C@H](Cc2ccccc2)NC1=O [Compound (76)] |  |  |  | 33.9 | 0.97 | 6.3 | 5.6 | 27.6 |
| CC(C)[C@@H]1OC(=O)C(C)(C)/C=C/c2ccc3ccc(nc3c2)N(C)NC(=O)[C@@H]2CCCN(N2)C(=O)[C@H](Cc2ccc(CN(C)C)cc2)NC1=O [Compound (79)] |  |  |  | 28.33 | 0.85 | 28 | 8.9 | 1.8 |
| CC(C)[C@@H]1OC(=O)C(C)(C)/C=C/c2ccc3ccc(nc3c2)N(C)NC(=O)[C@@H]2CCCN(N2)C(=O)[C@H](C2CC2)NC1=O [Compound (80)] |  |  |  | 25 | 1.00 | 22 | 4 | 29.2 |
| C[C@@H]1NC(=O)[C@H](Cc2ccccc2Cl)OC(=O)C(C)(C)/C=C/c2ccc3ccc(nc3c2)N(C)NC(=O)[C@@H]2CCCN(N2)C1=O [Compound (81)] |  |  |  | 20 | 0.67 | 9.4 | 9.7 | 44 |
